Experimental data taken from the NIST ThermoML archive (doi:10.1021/je800157v).

Test: xn = mol fraction of the nth substance listed
Conditions: 101 kPa, Liquid

CCC(C)O (stereo unspecified) [butan-2-ol] + c1ccccc1
mass density [kg/m3]
Conditions | 288.15 K | 293.15 K | 298.15 K | 303.15 K | 308.15 K | 313.15 K
x1 = 0.0511 | 879.01 | 873.67 | 868.33 | 862.98 | 857.61 | 852.24
x1 = 0.0995 | 874.6 | 869.29 | 863.96 | 858.62 | 853.25 | 847.89
x1 = 0.1508 | 870.04 | 864.77 | 859.48 | 854.17 | 848.83 | 843.48
x1 = 0.2013 | 865.76 | 860.54 | 855.3 | 850.02 | 844.72 | 839.39
x1 = 0.2482 | 861.91 | 856.74 | 851.54 | 846.3 | 841.03 | 835.75
x1 = 0.2999 | 857.8 | 852.69 | 847.54 | 842.35 | 837.13 | 831.88
x1 = 0.3486 | 854.03 | 848.96 | 843.86 | 838.72 | 833.54 | 828.34
x1 = 0.3995 | 850.21 | 845.2 | 840.14 | 835.05 | 829.92 | 824.76
x1 = 0.4509 | 846.44 | 841.48 | 836.49 | 831.44 | 826.35 | 821.21
x1 = 0.5003 | 842.93 | 838.02 | 833.08 | 828.08 | 823.04 | 817.96
x1 = 0.5498 | 839.48 | 834.64 | 829.75 | 824.82 | 819.82 | 814.8
x1 = 0.5953 | 836.41 | 831.62 | 826.79 | 821.91 | 816.96 | 811.96
x1 = 0.6487 | 832.84 | 828.13 | 823.37 | 818.56 | 813.68 | 808.75
x1 = 0.7006 | 829.46 | 824.83 | 820.15 | 815.4 | 810.59 | 805.73
x1 = 0.7493 | 826.32 | 821.78 | 817.17 | 812.5 | 807.75 | 802.95
x1 = 0.802 | 822.97 | 818.51 | 814 | 809.41 | 804.74 | 800.01
x1 = 0.8501 | 819.96 | 815.6 | 811.17 | 806.66 | 802.07 | 797.4
x1 = 0.9003 | 816.84 | 812.58 | 808.25 | 803.84 | 799.34 | 794.77
x1 = 0.9206 | 815.57 | 811.36 | 807.07 | 802.7 | 798.25 | 793.72
x1 = 0.9479 | 813.92 | 809.76 | 804.85 | 801.21 | 796.18 | 791.73
x1 = 1 | 810.64 | 806.59 | 802.47 | 798.27 | 793.97 | 789.59
